This note sets out measurements from patent publication US20240247035A1, “STAPLED ANTIMICROBIAL PEPTIDES (STAMPS) AND USES THEREOF” (Lytica Therapeutics, Inc., priority 2021, published 2024).

Converted amounts (≈) assume the structure as drawn. Where two headings read alike, the source gives them in different places. Bridge positions count the residues as written; N and C are the ends. Square brackets hold non-standard residues; d marks the D form. Peptide text beside a SMILES is read from it. S5 = C=CCCC[C@](C)(N)C(=O)O

One data set has as its system K. pneumoniae. It is filed as cell-based, Klebsiella pneumoniae. Particulars: 20-24 hours at 37° C., no visible bacterial growth. How it is done:
(§1) Antimicrobial Activity Assay: The following microbroth dilution protocol was adapted from CLSI to determine the minimum inhibitory concentration (MIC) of StAMPs. Briefly, Mueller-Hinton broth (MHB) or cation-adjusted Mueller-Hinton broth (MHB II) was prepared and autoclaved. Then, a colony of bacterial cells was picked and grown overnight in broth at 37° C. and then diluted and allowed to grow again for 3-4 hours. Serial dilutions of peptide stocks in water (10 μl) were prepared using clear round-bottom polypropylene 96-well plates. Then 90 μl of bacteria in broth was added to give a final inoculum of 5×10^5 CFU/ml. The plates were then covered with porous tape to reduce evaporation and incubated for 20-24 hours at 37° C. The MIC was the minimum peptide concentration at which no visible bacterial growth was observed.

A further data set has as its system A. baumannii. It counts as cell-based, Acinetobacter baumannii. Particulars: 20-24 hours at 37° C., no visible bacterial growth. How it is done: as §1
The test system of the next data set is E. coli. It is filed as cell-based, Escherichia coli. The conditions noted are these: 20-24 hours at 37° C., no visible bacterial growth. How it is done:
as §1

Data set [1] in a line: 90 minute cytotoxicity assay (LDH release), renal toxicity. Particulars: human. It counts as cell-based. Put shortly: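 RPTEC in growth-factor-supplemented MEM were exposed overnight-plated to serial dilutions of StAMPs (from 5 mg/mL water stock) or vehicle for 90 min at 37 °C. Released LDH in medium was measured with LDH reagent for 10 min, absorbance at 490 nm.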
The next data set concerns P. aeruginosa. It is filed as cell-based, Pseudomonas aeruginosa. Particulars: 20-24 hours at 37° C., no visible bacterial growth. As for the experimental part:
as §1

Data set [2] in a line: 48 hours cytotoxicity assay (CellTiter-Glo), liver toxicity. The conditions noted are these: human. It is filed as cell-based. The essentials: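 HepG2 cells (EMEM, 10% FBS) attached 4 h, then exposed to serial dilutions of StAMPs (from 5 mg/mL water stock) or vehicle for 48 h at 37° C. Viability read by CellTiter-Glo luminescence after 10 min at room temperature.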
A general note: In ATP-based viability assays light output follows the ATP content of the culture.

The subject of a further data set is S. aureus. It is filed as cell-based, Staphylococcus aureus. Particulars: 20-24 hours at 37° C., no visible bacterial growth. As for the experimental part:
as §1

As to `CC[C@H](C)[C@@H]1NC(=O)[C@@](C)(NC(=O)[C@H](CC(C)C)NC(=O)[C@H](CC(N)=O)NC(=O)[C@H](CCCCN)NC(=O)[C@H](CCCCN)NC(=O)[C@H](CCCCN)NC(=O)[C@H](CCCCN)NC(=O)CNC(=O)[C@H](CCCCN)NC(=O)[C@]2(C)CCCC=CCCC[C@](C)(NC(=O)CN)C(=O)N[C@@H](Cc3ccccc3)C(=O)N[C@@H](CO)C(=O)N[C@@H](CCCCN)C(=O)N2)CCCC=CCCC[C@@](C)(C(=O)N[C@@H](CCCCN)C(=O)NCC(N)=O)NC(=O)CNC(=O)[C@H](CO)NC1=O` [compound 28] (H-G[S5]FSK[S5]KGKKKKNL[S5]ISG[S5]KG-NH2; staple 2-6, 15-19), in the data set with K. pneumoniae, the “Minimum Inhibitory Concentration (MIC) K. pneumoniae” value was more than 64 µg/mL. For the same molecule, the “Minimum Inhibitory Concentration (MIC) A. baumannii” value with A. baumannii came out at 6 µg/mL. Further, the “Minimum Inhibitory Concentration (MIC) E. coli” value in the data set on E. coli came to 64 µg/mL. For the same molecule, the IC50 at 90 min in data set [1] (90 minutes of incubation, LDH, read-out: Inhibitory Concentration at 50% Cytotoxicity (IC50) Human Renal Proximal Tubule Epithelial Cells (RPTEC)) was more than 200 µg/mL. For the same molecule, the “Minimum Inhibitory Concentration (MIC) P. aeruginosa” value with P. aeruginosa stood at 6 µg/mL. The IC50 at 48 hours in data set [2] (48 hours of incubation, CellTiter-Glo, read-out: Inhibitory Concentration at 50% Cytotoxicity (IC50) Human Liver Cells (HepG2)) is more than 200 µg/mL. Moreover, in the data set with S. aureus, the “Minimum Inhibitory Concentration (MIC) S. aureus” value is more than 64 µg/mL.
Regarding `CC[C@H](C)[C@H](NC(=O)[C@H](CCCCN)NC(=O)[C@H](CCCCN)NC(=O)CNC(=O)[C@H](CCCCN)NC(=O)[C@]1(C)CCCC=CCCC[C@](C)(NC(=O)CN)C(=O)N[C@@H](Cc2ccccc2)C(=O)N[C@@H](CO)C(=O)N[C@@H](CCCCN)C(=O)N1)C(=O)N[C@@H](CCCCN)C(=O)N[C@@H](CC(N)=O)C(=O)N[C@@H](CC(C)C)C(=O)N[C@@H](CC(C)C)C(=O)N[C@@]1(C)CCCC=CCCC[C@@](C)(C(=O)N[C@@H](CCCCN)C(N)=O)NC(=O)[C@H](CC(C)C)NC(=O)CNC(=O)[C@H](CO)NC1=O` [compound 38] (H-G[S5]FSK[S5]KGKKIKNLL[S5]SGL[S5]K-NH2; staple 2-6, 16-20), the IC50 at 90 min in data set [1] turned out to be 51 µg/mL (≈ 21.7 µM). In addition, the IC50 at 48 hours in data set [2] came out at 54 µg/mL (≈ 23 µM).
`CC[C@H](C)[C@H](NC(=O)[C@H](CCCCN)NC(=O)[C@H](CCCCN)NC(=O)CNC(=O)[C@H](CCCCN)NC(=O)[C@]1(C)CCCC=CCCC[C@](C)(NC(=O)CN)C(=O)N[C@@H](Cc2ccccc2)C(=O)N[C@@H](CO)C(=O)N[C@@H](CCCCN)C(=O)N1)C(=O)N[C@@H](CCCCN)C(=O)N[C@@H](CC(N)=O)C(=O)N[C@@H](CC(C)C)C(=O)N[C@@H](CC(C)C)C(=O)N[C@@]1(C)CCCC=CCCC[C@@](C)(C(=O)N[C@@H](CCCCN)C(=O)NCC(=O)NCC(=O)N[C@@H](CCC(=O)O)C(N)=O)NC(=O)[C@H](CC(C)C)NC(=O)CNC(=O)[C@H](CO)NC1=O` [compound 39] (H-G[S5]FSK[S5]KGKKIKNLL[S5]SGL[S5]KGGE-NH2; staple 2-6, 16-20) displayed an IC50 at 90 min in data set [1] of more than 200 µg/mL. Also, the IC50 at 48 hours in data set [2] was more than 200 µg/mL.
For `CC[C@H](C)[C@H](NC(=O)CN)C(=O)N[C@@H](Cc1ccccc1)C(=O)N[C@@H](CO)C(=O)N[C@@H](CCCCN)C(=O)N[C@@H](CC(C)C)C(=O)N[C@@]1(C)CCCC=CCCC[C@@](C)(C(=O)N[C@@H](CCCCN)C(=O)N[C@@H](CC(N)=O)C(=O)N[C@@H](CC(C)C)C(=O)N[C@@H](CC(C)C)C(=O)N[C@H](C(=O)N[C@@H](CO)C(=O)NCC(=O)N[C@@H](CC(C)C)C(=O)N[C@@H](CCCCN)C(=O)NCC(N)=O)[C@@H](C)CC)NC(=O)[C@H](CCCCN)NC(=O)[C@H](CCCCN)NC(=O)CNC1=O` [compound 40] (H-GIFSKL[S5]GKK[S5]KNLLISGLKG-NH2; staple 7-11), the IC50 at 90 min in data set [1] turned out to be 11 µg/mL (≈ 4.89 µM). Also, in data set [2], the IC50 at 48 hours turned out to be 17 µg/mL (≈ 7.55 µM).
Take `CC[C@H](C)[C@H](NC(=O)CN)C(=O)N[C@@H](Cc1ccccc1)C(=O)N[C@@H](CO)C(=O)N[C@@H](CCCCN)C(=O)N[C@@H](CC(C)C)C(=O)N[C@@]1(C)CCCC=CCCC[C@@](C)(C(=O)N[C@@H](CCCCN)C(=O)N[C@@H](CC(N)=O)C(=O)N[C@@H](CC(C)C)C(=O)N[C@@H](CCCCN)C(=O)N[C@H](C(=O)N[C@@H](CO)C(=O)NCC(=O)N[C@@H](CC(C)C)C(=O)N[C@@H](CCCCN)C(=O)NCC(N)=O)[C@@H](C)CC)NC(=O)[C@H](CCCCN)NC(=O)[C@H](CCCCN)NC(=O)CNC1=O` [compound 41] (H-GIFSKL[S5]GKK[S5]KNLKISGLKG-NH2; staple 7-11): the IC50 at 90 min in data set [1] was determined as 147 µg/mL (≈ 64.9 µM). For the same molecule, the IC50 at 48 hours in data set [2] was 172 µg/mL (≈ 75.9 µM).
Regarding `CC[C@H](C)[C@@H]1NC(=O)[C@@](C)(NC(=O)[C@H](CCCCN)NC(=O)[C@H](CCCCN)NC(=O)CNC(=O)[C@H](CCCCN)NC(=O)[C@]2(C)CCCC=CCCC[C@](C)(NC(=O)CN)C(=O)N[C@@H](Cc3ccccc3)C(=O)N[C@@H](CO)C(=O)N[C@@H](CCCCN)C(=O)N2)CCCC=CCCC[C@@](C)(C(=O)N[C@@H](CCCCN)C(=O)NCC(N)=O)NC(=O)CNC(=O)[C@H](CO)NC1=O` [compound 42] (H-G[S5]FSK[S5]KGKK[S5]ISG[S5]KG-NH2; staple 2-6, 11-15), in data set [1], the IC50 at 90 min is more than 200 µg/mL. In data set [2], this molecule gave an IC50 at 48 hours of more than 200 µg/mL.
